Data published in patent publication EP1247803A2, “Indolinone compounds suitable for modulation of protein kinases” (Sugen, Inc., priority 1996, dated 1998).

Experiments:
EGFR = target: T1, EGFR (Homo sapiens, UniProt P00533); test: EGFR ELISA assay (in vitro kinase activity, EGFR captured from A431 cell lysate); format: biochemical; design: concentration or dose not given beside the values
T1 construct: Add 7 ug A431 cell lysate per well (EGFR source); endogenous in cells; host or cells: A431
In short: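 EGFR from A431 lysate was captured on anti-EGFR antibody-coated plates and preincubated with compounds for 30 min. Autophosphorylation ran 5 min with 3 uM ATP and 5 mM MnCl2 (final), stopped with 20 mM EDTA. Phosphotyrosine was detected by anti-pTyr ELISA with ABTS/H2O2, read at 410 nm.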

PDGF-R = PDGF-R (Homo sapiens, UniProt P09619); test: PDGF-R ELISA; format: cell-based
Sequence of PDGF-R (P09619 33-1106, species assumed): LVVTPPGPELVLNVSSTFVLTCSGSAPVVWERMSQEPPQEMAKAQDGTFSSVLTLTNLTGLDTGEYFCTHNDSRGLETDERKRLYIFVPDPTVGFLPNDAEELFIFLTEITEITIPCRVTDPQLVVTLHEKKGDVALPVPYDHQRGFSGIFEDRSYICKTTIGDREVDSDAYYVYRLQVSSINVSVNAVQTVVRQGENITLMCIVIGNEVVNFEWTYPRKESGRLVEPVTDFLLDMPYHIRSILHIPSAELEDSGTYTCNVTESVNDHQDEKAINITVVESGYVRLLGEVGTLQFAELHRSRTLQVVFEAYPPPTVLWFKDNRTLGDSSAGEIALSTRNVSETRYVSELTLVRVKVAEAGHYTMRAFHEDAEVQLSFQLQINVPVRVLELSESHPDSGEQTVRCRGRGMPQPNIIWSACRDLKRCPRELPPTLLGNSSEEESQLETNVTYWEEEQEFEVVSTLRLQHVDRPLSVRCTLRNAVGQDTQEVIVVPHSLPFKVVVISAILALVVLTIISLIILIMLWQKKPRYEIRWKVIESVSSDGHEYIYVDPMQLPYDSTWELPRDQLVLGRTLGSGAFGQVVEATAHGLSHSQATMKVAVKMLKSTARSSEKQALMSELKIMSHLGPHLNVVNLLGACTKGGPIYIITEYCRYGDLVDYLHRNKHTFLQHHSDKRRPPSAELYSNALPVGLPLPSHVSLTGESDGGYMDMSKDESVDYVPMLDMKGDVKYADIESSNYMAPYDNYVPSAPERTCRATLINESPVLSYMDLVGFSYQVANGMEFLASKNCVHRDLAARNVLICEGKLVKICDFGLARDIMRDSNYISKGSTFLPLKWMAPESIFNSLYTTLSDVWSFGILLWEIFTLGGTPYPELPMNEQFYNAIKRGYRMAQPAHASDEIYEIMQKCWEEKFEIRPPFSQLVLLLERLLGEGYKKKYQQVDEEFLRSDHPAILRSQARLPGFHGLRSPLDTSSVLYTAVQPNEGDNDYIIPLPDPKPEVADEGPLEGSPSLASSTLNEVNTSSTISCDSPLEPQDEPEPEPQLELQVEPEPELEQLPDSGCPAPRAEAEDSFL
Source text: A PDGF-R ELISA is described in International Patent Publication No. WO 96/40116, published December 19, 1996 by Tang et al.

T1 sequence (P00533 25-1210): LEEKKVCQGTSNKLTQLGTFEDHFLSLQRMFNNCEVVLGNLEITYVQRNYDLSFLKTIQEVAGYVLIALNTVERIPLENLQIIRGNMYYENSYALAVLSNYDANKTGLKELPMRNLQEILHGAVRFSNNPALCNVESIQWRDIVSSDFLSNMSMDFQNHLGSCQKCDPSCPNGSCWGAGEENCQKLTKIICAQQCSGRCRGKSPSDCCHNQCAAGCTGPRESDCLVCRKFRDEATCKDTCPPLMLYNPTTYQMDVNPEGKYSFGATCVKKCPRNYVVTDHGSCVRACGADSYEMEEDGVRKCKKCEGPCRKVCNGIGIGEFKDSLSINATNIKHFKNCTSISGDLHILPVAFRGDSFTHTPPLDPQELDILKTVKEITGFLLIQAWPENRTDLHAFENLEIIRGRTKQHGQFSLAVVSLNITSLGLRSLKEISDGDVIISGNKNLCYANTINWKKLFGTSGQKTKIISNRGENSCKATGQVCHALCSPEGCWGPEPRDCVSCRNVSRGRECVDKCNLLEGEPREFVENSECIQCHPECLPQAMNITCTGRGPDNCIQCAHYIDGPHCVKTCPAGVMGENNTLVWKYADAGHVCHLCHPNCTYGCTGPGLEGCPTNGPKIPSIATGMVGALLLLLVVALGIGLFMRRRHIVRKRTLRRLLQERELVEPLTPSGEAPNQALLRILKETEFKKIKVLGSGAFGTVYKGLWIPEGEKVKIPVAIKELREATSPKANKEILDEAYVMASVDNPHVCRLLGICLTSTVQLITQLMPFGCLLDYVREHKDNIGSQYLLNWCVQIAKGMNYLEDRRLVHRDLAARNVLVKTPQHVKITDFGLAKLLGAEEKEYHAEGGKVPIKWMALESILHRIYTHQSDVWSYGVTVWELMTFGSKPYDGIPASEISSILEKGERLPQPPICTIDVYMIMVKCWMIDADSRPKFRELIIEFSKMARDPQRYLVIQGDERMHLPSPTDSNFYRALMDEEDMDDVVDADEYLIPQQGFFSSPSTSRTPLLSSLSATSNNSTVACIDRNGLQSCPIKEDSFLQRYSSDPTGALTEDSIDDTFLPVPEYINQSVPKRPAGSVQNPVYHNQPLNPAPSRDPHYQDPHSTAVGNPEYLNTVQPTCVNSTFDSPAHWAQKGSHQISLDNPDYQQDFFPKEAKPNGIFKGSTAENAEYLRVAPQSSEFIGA

SMILES | Biochem EGFR %Inhibition (EGFR) [%] | PDGF Kinase %Inhibition (PDGF-R) [%]
COc1c(I)cc(C=C2C(=O)Nc3ccc(S(=O)(=O)Nc4ccc(C(F)(F)F)cc4)cc32)cc1C(C)(C)C [10732/E11] | -32.2 | 47.7
COc1c(O)ccc(C=C2C(=O)Nc3ccc(Br)c(C)c32)c1[N+](=O)[O-] [10733/C11] | 15.8 | 62.2
CNS(=O)(=O)c1ccc2c(c1)C(=Cc1cc([N+](=O)[O-])c(OC)c(C(C)(C)C)c1)C(=O)N2 [10733/D03] | 11.2 | 40.7
COc1c(C(C)(C)C)cc(C=C2C(=O)Nc3c(Br)cc(Br)cc32)cc1C(C)(C)C [10733/A04] | 32.8 | -14.1
Cc1c(Br)ccc2c1C(=Cc1cc([N+](=O)[O-])ccc1O)C(=O)N2 [10733/C10] | 36.0 | -6.4
Cc1cc(C=C2C(=O)Nc3ccc(Br)c(C)c32)cc(C)c1OCc1ccccc1 [10733/C07] | 16.7 | 4.6
COc1cccc(O)c1C=C1C(=O)Nc2c(Br)cc(Br)cc21 [10717/A10] | 8.1 | –
Cc1cc(C=C2C(=O)Nc3c(Br)cc(Br)cc32)cc(C)c1OCc1ccccc1 [10733/A07] | 28.5 | -12.9
COc1c(C)cc(C=C2C(=O)Nc3ccc(Br)c(C)c32)cc1C [10733/C06] | 22.7 | 20.0
Cc1c(Br)ccc2c1C(=Cc1cc(C(C)(C)C)c(OCc3ccccc3)c(C(C)(C)C)c1)C(=O)N2 [10733/C05] | 17.2 | 11.1
O=C1Nc2ccc(S(=O)(=O)N3CCOCC3)cc2C1=CC(c1cccs1)C(F)(F)F (centres unmarked) [10732/F02] | 23.1 | -9.4
COc1cc(Br)cc(C=C2C(=O)Nc3ccc(Br)c(C)c32)c1O [10733/C08] | 65.8 | -3.6
COc1c(C(C)C)cc(C=C2C(=O)Nc3ccc(S(=O)(=O)N4CCOCC4)cc32)cc1C(C)C [10732/F03] | 54.1 | 51.8
CC(C)(C)c1cc(C=C2C(=O)Nc3ccc(I)cc32)cc(C(C)(C)C)c1OCc1ccccc1 [10733/B05] | 26.7 | 27.3
CNS(=O)(=O)c1ccc2c(c1)C(=Cc1ccco1)C(=O)N2 [10718/D10] | 12.3 | –
COc1c(Br)cc(C=C2C(=O)Nc3ccc(S(=O)(=O)Nc4ccc(C(F)(F)F)cc4)cc32)cc1C(C)(C)C [10732/E07] | -8.5 | 42.2
COc1c(C(C)(C)C)cc(C=C2C(=O)Nc3ccc(Br)c(C)c32)cc1C(C)(C)C [10733/C04] | 29.0 | 19.2
CC(C)(C)c1cc(C=C2C(=O)Nc3c(Br)cc(Br)cc32)cc(I)c1OCc1ccccc1 [10733/A02] | 25.9 | 11.5
COc1c([N+](=O)[O-])cc(C=C2C(=O)Nc3c(Br)cc(Br)cc32)cc1C(C)(C)C [10733/A03] | 33.6 | 23.2
CC(C)(C)c1cc(C=C2C(=O)Nc3ccc(S(=O)(=O)Nc4ccc(C(F)(F)F)cc4)cc32)cc(I)c1OCc1ccccc1 [10733/E02] | -1.3 | 20.8
COc1c(Br)cc(C=C2C(=O)Nc3ccc(S(=O)(=O)N4CCOCC4)cc32)cc1C(C)(C)C [10732/F07] | -12.5 | 38.6
COc1cc(Br)c(O)c(C=C2C(=O)Nc3ccc(S(=O)(=O)Nc4ccc(C(F)(F)F)cc4)cc32)c1 [10718/E03] | 50.4 | –
Cc1c(Br)ccc2c1C(=Cc1cc(Br)ccc1O)C(=O)N2 [10733/C09] | 46.0 | 91.9
COc1c(C)cc(C=C2C(=O)Nc3c(Br)cc(Br)cc32)cc1C [10733/A06] | 45.1 | -24.3
COc1ccc(C=C2C(=O)Nc3ccc(S(=O)(=O)Nc4ccc(C(F)(F)F)cc4)cc32)cc1C(C)(C)C [10732/E05] | -17.0 | 41.1

SMILES | Biochem EGFR %Inhibition (EGFR) [%] | PDGF Kinase %Inhibition (PDGF-R) [%]
O=C1Nc2c(Br)cc(Br)cc2C1=Cc1cc(Br)ccc1O [10733/A09] | 25.9 | -7.6
CNS(=O)(=O)c1ccc2c(c1)C(=Cc1cc(I)c(OC)c(C(C)(C)C)c1)C(=O)N2 [10732/D11] | -13.4 | 18.9
COc1c(Br)cc(C=C2C(=O)Nc3ccc(CCCl)cc32)cc1C(C)(C)C [10732/G07] | -21.9 | 21.4
COc1c(C)cc(C=C2C(=O)Nc3ccc(I)cc32)cc1C [10733/B06] | 43.6 | -9.2
CNS(=O)(=O)c1ccc2c(c1)C(=Cc1cc(Br)cc(OC)c1O)C(=O)N2 [10733/D08] | 38.3 | 42.3
O=C1Nc2ccc(CCCl)cc2C1=CC(c1cccs1)C(F)(F)F (centres unmarked) [10732/G02] | -0.7 | 10.3
CC(C)(C)c1cc(C=C2C(=O)Nc3ccc(CCCl)cc32)ccc1OCc1ccccc1 [10732/G06] | -12.1 | 0.2
O=C1Nc2ccc(I)cc2C1=Cc1cc(Br)ccc1O [10733/B09] | 21.1 | 7.0
CC(C)(C)c1cc(C=C2C(=O)Nc3ccc(S(=O)(=O)Nc4ccc(C(F)(F)F)cc4)cc32)cc(Cl)c1OCc1ccccc1 [10732/E10] | -3.3 | 35.6
O=C1Nc2c(Br)cc(Br)cc2C1=Cc1cc([N+](=O)[O-])ccc1O [10733/A10] | 14.2 | -13.3
CC(C)(C)c1cc(C=C2C(=O)Nc3ccc(S(=O)(=O)N4CCOCC4)cc32)cc(Br)c1OCc1ccccc1 [10732/F08] | -11.9 | 14.9
Cc1c(Br)ccc2c1C(=Cc1cc(I)c(OCc3ccccc3)c(C(C)(C)C)c1)C(=O)N2 [10733/C02] | 31.6 | 15.1
COc1c(C(C)C)cc(C=C2C(=O)Nc3ccc(S(=O)(=O)Nc4ccc(C(F)(F)F)cc4)cc32)cc1C(C)C [10732/E03] | -1.6 | 48.7
CNS(=O)(=O)c1ccc2c(c1)C(=Cc1cc(I)c(OCc3ccccc3)c(C(C)(C)C)c1)C(=O)N2 [10733/D02] | 12.5 | 17.6
COc1cc(Br)cc(C=C2C(=O)Nc3ccc(I)cc32)c1O [10733/B08] | 32.5 | -15.7
COc1c(Cl)cc(C=C2C(=O)Nc3ccc(S(=O)(=O)Nc4ccc(C(F)(F)F)cc4)cc32)cc1C(C)(C)C [10732/E09] | -7.2 | 46.7
COc1ccc(C=C2C(=O)Nc3ccc(S(=O)(=O)N4CCOCC4)cc32)cc1C(C)(C)C [10732/F05] | -30.7 | 12.8
COc1c([N+](=O)[O-])cc(C=C2C(=O)Nc3ccc(I)cc32)cc1C(C)(C)C [10733/B03] | 14.4 | 35.8
COc1c(O)ccc(C=C2C(=O)Nc3ccc(I)cc32)c1[N+](=O)[O-] [10733/B11] | 12.5 | 23.7
CNS(=O)(=O)c1ccc2c(c1)C(=Cc1c(C)[nH]c(C(=O)OC)c1C(=O)OC)C(=O)N2 [10718/D07] | 5.6 | –
CCOC(=O)c1c(C)[nH]c(C=C2C(=O)Nc3ccc(S(=O)(=O)Nc4ccc(C(F)(F)F)cc4)cc32)c1C [10718/E02] | 1.0 | –
CC(C)(C)c1cc(C=C2C(=O)Nc3ccc(CCCl)cc32)cc(Cl)c1OCc1ccccc1 [10732/G10] | -38.2 | 20.4
CNS(=O)(=O)c1ccc2c(c1)C(=Cc1ccc(Cl)c([N+](=O)[O-])c1)C(=O)N2 [10718/D08] | 3.0 | –
CNS(=O)(=O)c1ccc2c(c1)C(=Cc1ccc([N+](=O)[O-])o1)C(=O)N2 [10718/D11] | 5.4 | –
CNS(=O)(=O)c1ccc2c(c1)C(=Cc1ccc(O)c(C)c1O)C(=O)N2 [10718/D09] | 6.0 | –
